Tests used:
A549 [1] = experiment: Cytotoxicity against human A549 cells by MTT assay; assay type: functional, cell-based
MGC-803 [2] = experiment: Cytotoxicity against human MGC803 cells by MTT assay; assay type: functional, cell-based
MCF7 [3] = experiment: Cytotoxicity against human MCF7 cells by MTT assay; assay type: functional, cell-based
MCF7 [4] = experiment: Potency index, ratio of pinophilin-B IC50 to test compound IC50 against human MCF7 cells; assay type: functional
MDA-MB-231 [5] = experiment: Potency index, ratio of pinophilin-B IC50 to test compound IC50 against human MDA-MB-231 cells; assay type: functional
HeLa [6] = experiment: Potency index, ratio of pinophilin-B IC50 to test compound IC50 against human HeLa cells; assay type: functional
MGC-803 [7] = experiment: Potency index, ratio of pinophilin-B IC50 to test compound IC50 against human MGC803 cells; assay type: functional
HeLa [8] = experiment: Cytotoxicity against human HeLa cells by MTT assay; assay type: functional, cell-based
A549 [9] = experiment: Potency index, ratio of pinophilin-B IC50 to test compound IC50 against human A549 cells; assay type: functional
MDA-MB-231 [10] = experiment: Cytotoxicity against human MDA-MB-231 cells by MTT assay; assay type: functional, cell-based

| Compound | IC50 (A549 [1]) | IC50 (MGC-803 [2]) | IC50 (MCF7 [3]) | Ratio IC50 (MCF7 [4]) | Ratio IC50 (MDA-MB-231 [5]) | Ratio IC50 (HeLa [6]) | Ratio IC50 (MGC-803 [7]) | IC50 (HeLa [8]) | Ratio IC50 (A549 [9]) | IC50 (MDA-MB-231 [10]) |
| --- | --- | --- | --- | --- | --- | --- | --- | --- | --- | --- |
| Cc1cc(O)cc(O)c1C(=O)O[C@H]1[C@@H]2COC([C@H]3[C@H](CO)[C@H]4C(=O)[C@@](C)(O)[C@@H](OC(=O)c5c(C)cc(O)cc5O)[C@@H]5COC(/C=C/CO)=C[C@]453)=CC2=CC(=O)[C@@]1(C)O | 1 µM | 1.3 µM | 2.1 µM | 30 - 90 | 30 - 90 | 30 - 90 | 30 - 90 | 2.5 µM | 30 - 90 | 1.9 µM |
| Cc1cc(O)cc(O)c1C(=O)O[C@H]1[C@@H]2COC([C@H]3[C@H](CO)[C@@H](CO)[C@@H]3C3=CC4=CC(=O)[C@@](C)(O)[C@@H](OC(=O)c5c(C)cc(O)cc5O)[C@@H]4CO3)=CC2=CC(=O)[C@@]1(C)O | 3.5 µM | 2 µM | > 10 µM | 30 - 90 | 30 - 90 | 30 - 90 | 30 - 90 | 3 µM | 30 - 90 | 3.8 µM |
| Cc1cc(O)cc(O)c1C(=O)O[C@H]1[C@@H]2COC(/C=C/CO)=CC2=CC(=O)[C@@]1(C)O [PINOPHILIN B] | 89 µM | 84 µM | 95 µM |  |  |  |  | 78 µM |  | 97 µM |

From ChEMBL document CHEMBL4610104, “Dipleosporalones A and B, Dimeric Azaphilones from a Marine-Derived Pleosporales sp. Fungus” (J Nat Prod, 2020)
